Test results from US3962282A, “Juvenile hormone mimics” (priority 1974, dated 1976).

Columns and labels:
[1] = system: Mexican bean beetle larvae; assay: spray of caged flats of bean plants with Mexican bean beetle larvae; assay type: in vivo
Procedure: Six-foot by 12-foot caged flats were planted with Bountiful variety bean plants in two 12-foot rows. Into each cage were introduced 100 Mexican bean beetle larvae. Each cage was then sprayed with 500 ml. of a solution prepared by diluting a 48 percent emulsifiable concentrate of 2,6-dimethyl-9-(3,4-methylenedioxyphenyl)-2,6-nonadiene to the desired concentration. Two flats were treated at each concentration and two were used as controls.

[2] = system: Mexican bean beetle larvae; assay: soil drench of bean plants with Mexican bean beetle larvae; assay type: in vivo; conditions: scale 0-3
Procedure: Bean plants of the Bountiful variety were placed in soil and allowed to grow with 10 Mexican bean beetle larvae on each cluster. To the soil around each plant was added 200 ml. of a solution containing 2,6-dimethyl-9-(3,4-methylenedioxyphenyl)-2,6-nonadiene. The soil was then covered with aluminum foil to prevent the larvae from coming in contact with the compound. Three different concentrations of compound were applied. These were prepared from a 48 percent emulsifiable concentrate by diluting 10 ml., 4 ml., and 2 ml. of the concentrate to a volume of 200 ml. with water. A control using 200 ml. of just water and another using no drench were also run. The results are tabulated below using the same rating system as described earlier for the primary screening test agains Mexican bean beetle.

milkweed bug = assay: topical application to milkweed bug, fourth nymphal stage, maturation inhibition; assay type: in vivo; conditions: rating scale 0-3
In short: (§1)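 Compounds applied topically, 1 μL acetone solution at 10%, 1% or 0.5%, to ten specimens per insect per concentration, alongside acetone and untreated controls; scored after about 8–10 days. Juvenile/adult characteristics rated 0–3 (Tenebrio 0–4), ≥2 meaning unable to reproduce; unreported specimens died during metamorphosis.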

[3] = system: Mexican bean beetle larvae; assay: fumigant and residual activity in jars on Mexican bean beetle larvae; assay type: in vivo
Procedure: Fumigant and residual activity of 2,6-dimethyl-9-(3,4-methylenedioxyphenyl)-2,6-nonadiene was determined in the following manner. One milliliter of a 1 percent, a 0.1 percent or a 0.01 percent solution of the test compound was placed in the bottom of a one pint jar. A control was prepared using just acetone. The acetone was allowed to evaporate and 10 Mexican bean beetle larvae were placed on a screen 5 inches from the bottom. The jar was closed for one week at which time the controls emerge as adults and the treated ones are rated as described above. The larvae are replaced weekly.

German cockroach nymphs = assay: topical application to 50-day-old German cockroach nymphs; assay type: in vivo, Blattella germanica
Text: In another test, the nonadiene was applied topically to 50-day-old German cockroach nymphs. The compound was applied in acetone as a […], or 0.5 percent solution. Acetone controls and nontreated controls were also run. The roaches were then maintained in the laboratory until the controls reproduced. […] The 1 percent and 0.5 percent treatments did reproduce.

Tenebrio molitor pupae = assay: topical application to Tenebrio molitor pupae, maturation inhibition; assay type: in vivo; conditions: rating scale 0-4
In short: as §1

aphid nymphs = assay: application to aphid nymphs in acetone; assay type: in vivo, Aphis gossypi; conditions: 3 days
Procedure: In another test, female aphids were placed on young squash plants and allowed to produce young for 24 hours. After 24 hours, all adult aphids were removed from the plants and the young were maintained on the plants for an additional 48-hour period. This gave an aphid nymph population having an age of 48 to 72 hours. To each nymph was applied […]. of a 10 percent, 1 percent, or 0.5 percent solution of 2.6- dimethyl-9-(3,4-methylenedioxyphenyl)-2,6-nonadiene or 7,8-epoxy-4-ethyl-8-methyl-1-(3,4-methylenedioxyphenyl)-3-decene in acetone and the aphid nymphs were transferred to new squash plants and observed for possible effects. Ten nymphs were treated with each concentration of each compound and 10 were treated with acetone alone while 10 were not treated to serve as controls. […] There was only one dead nymph treated with acetone alone and one dead nymph in the nontreated controls.

wax moth = assay: topical application to wax moth, fifth larval stage, maturation inhibition; assay type: in vivo
In short: as §1

For `CC(C)=CCCC(C)=CCCc1ccc2c(c1)OCO2` [2,6-dimethyl-9-(3,4-methylenedioxyphenyl)-2,6-nonadiene], the “% Control” value ([1]; 0.1 lbs./acre) was 13%, the “% Control” value ([1]; 0.2 lbs./acre) was 71.5% and the “% Control” value ([1]; 0.4 lbs./acre) was 75.5%. The “% Control” value ([1]; 0.8 lbs./acre) was 98.5%, the “number in rating 0” value ([2]; 2 ml. concentrate/200 ml.) was 8 and the “number in rating 3” value ([2]; 2 ml. concentrate/200 ml.) was 2. For the same compound, the “number in rating 0” value ([2]; 4 ml. concentrate/200 ml.) was 2, the “number in rating 3” value ([2]; 4 ml. concentrate/200 ml.) was 8 and the “number in rating 0” value ([2]; 10 ml. concentrate/200 ml.) was 1. For the same compound, the “number in rating 3” value ([2]; 10 ml. concentrate/200 ml.) was 9, the “number of specimens in rating 3” value (milkweed bug; 0.5%) was 10 specimens and the “number of specimens in rating 3” value (milkweed bug; 1%) was 10 specimens. For the same compound, the “number of specimens in rating 3” value (milkweed bug; 10%) was 5 specimens, the “number in rating 0” value ([3]; Fifteenth Week, 0.01%) was 10 and the “number in rating 0” value ([3]; Fifteenth Week, 0.1%) was 10. For the same compound, the “number in rating 3” value ([3]; Fifteenth Week, 1%) was 10, the “number in rating 0” value ([3]; Fifth Week, 0.01%) was 10 and the “number in rating 3” value ([3]; Fifth Week, 0.1%) was 10. The “number in rating 3” value ([3]; Fifth Week, 1%) was 10, the “number in rating 0” value ([3]; First Week, 0.01% (0.1 mg.)) was 5 and the “number in rating 2” value ([3]; First Week, 0.01% (0.1 mg.)) was 1. The “number in rating 3” value ([3]; First Week, 0.01% (0.1 mg.)) was 4, the “number in rating 3” value ([3]; First Week, 0.1% (1 mg.)) was 10 and the “number in rating 2” value ([3]; First Week, 1% (10 mg.)) was 1. For the same compound, the “number in rating 3” value ([3]; First Week, 1% (10 mg.)) was 9, the “number in rating 0” value ([3]; Second Week, 0.01%) was 4 and the “number in rating 2” value ([3]; Second Week, 0.01%) was 2. The “number in rating 3” value ([3]; Second Week, 0.01%) was 4, the “number in rating 3” value ([3]; Second Week, 0.1%) was 10 and the “number in rating 0” value ([3]; Second Week, 1%) was 1. The “number in rating 3” value ([3]; Second Week, 1%) was 10, the “number in rating 0” value ([3]; Tenth Week, 0.01%) was 10 and the “number in rating 0” value ([3]; Tenth Week, 0.1%) was 5. For the same compound, the “number in rating 1” value ([3]; Tenth Week, 0.1%) was 2, the “number in rating 2” value ([3]; Tenth Week, 0.1%) was 1 and the “number in rating 3” value ([3]; Tenth Week, 0.1%) was 2. For the same compound, the “number in rating 3” value ([3]; Tenth Week, 1%) was 10, the “number in rating 3” value ([3]; Twenty-second Week, 1%) was 10 and the reproduction (German cockroach nymphs; 0.5 percent) was “did reproduce”. The reproduction (German cockroach nymphs; 1 percent) was “did reproduce”, the reproduction (German cockroach nymphs; 10 percent solution) was “did not reproduce” and the wing formation (German cockroach nymphs; 10 percent solution) was “normal wing formation”. The “number of specimens in rating 4” value (Tenebrio molitor pupae; 0.5%) was 9 specimens, the “number of specimens in rating 4” value (Tenebrio molitor pupae; 1%) was 10 specimens and the “number of specimens in rating 4” value (Tenebrio molitor pupae; 10%) was 10 specimens. The dead nymphs (aphid nymphs; 0.5 percent) was “nine of the ten”, the dead nymphs (aphid nymphs; 1 percent) was “all of the nymphs” and the dead nymphs (aphid nymphs; 10 percent) was “all of the nymphs”. The “number of specimens in rating 0” value (wax moth; 0.5%, rating scale 0-3) was 8 specimens, the “number of specimens in rating 1” value (wax moth; 0.5%, rating scale 0-3) was 1 specimens and the “number of specimens in rating 0” value (wax moth; 1%, rating scale 0-3) was 9 specimens. The “number of specimens in rating 3” value (wax moth; 1%, rating scale 0-3) was 1 specimens, the “number of specimens in rating 0” value (wax moth; 10% in acetone, 1 microliter topical, rating scale 0 (no effect) to 3 (maximum)) was 7 specimens and the “number of specimens in rating 1” value (wax moth; 10%, rating scale 0-3) was 2 specimens. The “number of specimens in rating 3” value (wax moth; 10%, rating scale 0-3) was 1 specimens.
